Results published in PubChem BioAssay AID248 (DTP/NCI, 2004).
Toxic doses and inconclusive results are not listed. Cut-off read from the data, not from the text of the source: active = T/C of 150% or more; inactive = T/C below 125%.

System: L1210 leukemia ip in BDF1 mice, survival T/C
Assay: NCI In Vivo Anticancer Drug Screen. Data for tumor model L1210 Leukemia (intraperitoneal) in B6D2F1 (BDF1) mice
Details: endpoint: mean survival time, higher = longer survival
Summary of the method: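 Tumor cells were implanted, animals were treated, and survival was followed. The result divides the treated measurement by the vehicle-control measurement.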

[1] = dose: 100.0 mg/kg/injection, schedule: Q01DX009 (ip), vehicle: saline with Tween-80
[2] = dose: 100.0 mg/kg/injection, schedule: Q04DX003 (ip), vehicle: saline with Tween-80
[3] = dose: 200.0 mg/kg/injection, schedule: Q04DX003 (ip), vehicle: saline with Tween-80
[4] = dose: 100.0 mg/kg/injection, schedule: Q04DX003 (ip), vehicle: Klucel (hydroxypropylcellulose) (HPC)
[5] = dose: 200.0 mg/kg/injection, schedule: Q04DX003 (ip), vehicle: Klucel (hydroxypropylcellulose) (HPC)
[6] = dose: 400.0 mg/kg/injection, schedule: Q04DX003 (ip), vehicle: Klucel (hydroxypropylcellulose) (HPC)
[7] = dose: 100.0 mg/kg/injection, schedule: Q01DX001 (ip), vehicle: saline
[8] = dose: 200.0 mg/kg/injection, schedule: Q01DX001 (ip), vehicle: saline
[9] = dose: 400.0 mg/kg/injection, schedule: Q01DX001 (ip), vehicle: saline

Measured: T/C

CCC1C(=O)OC2(CO)C(=O)N(C)CCC12 (stereo not given)
inactive: dose: 15.6 mg/kg/injection, schedule: Q01DX001 (ip), vehicle: saline 103 % of control | dose: 31.3 mg/kg/injection, schedule: Q01DX001 (ip), vehicle: saline 103 % of control | dose: 62.5 mg/kg/injection, schedule: Q01DX001 (ip), vehicle: saline 91 % of control | dose: 125.0 mg/kg/injection, schedule: Q01DX001 (ip), vehicle: saline 94 % of control

O=C(C[n+]1ccccc1)N/N=C/c1ccc(Cl)cc1
inactive: dose: 25.0 mg/kg/injection, schedule: Q01DX009 (ip), vehicle: saline with Tween-80 98 % of control | dose: 50.0 mg/kg/injection, schedule: Q01DX009 (ip), vehicle: saline with Tween-80 96 % of control | [1] 100 % of control

C(=C(c1ccccc1)c1ccccc1)c1ccccn1
inactive: [1] 97 % of control | [2] 98 % of control | dose: 200.0 mg/kg/injection, schedule: Q01DX009 (ip), vehicle: saline with Tween-80 100 % of control | [3] 93 % of control | dose: 400.0 mg/kg/injection, schedule: Q01DX009 (ip), vehicle: saline with Tween-80 97 % of control

CCCCCCCCCCCCCCCCOc1ccc(-c2cc(=O)n(C)n2C)cc1
inactive: [4] 95 % of control | [5] 101 % of control | [6] 95 % of control

COc1ccc(NC(=O)Nc2ccc(Cl)cc2C)cc1
inactive: dose: 100.0 mg/kg/injection, schedule: Q01DX009 (sc), vehicle: olive oil, sesame oil, peanut oil 100 % of control | dose: 100.0 mg/kg/injection, schedule: Q04DX003 (sc), vehicle: olive oil, sesame oil, peanut oil 101 % of control | dose: 200.0 mg/kg/injection, schedule: Q01DX009 (sc), vehicle: olive oil, sesame oil, peanut oil 102 % of control | dose: 200.0 mg/kg/injection, schedule: Q04DX003 (sc), vehicle: olive oil, sesame oil, peanut oil 100 % of control | dose: 400.0 mg/kg/injection, schedule: Q01DX009 (sc), vehicle: olive oil, sesame oil, peanut oil 96 % of control | dose: 400.0 mg/kg/injection, schedule: Q04DX003 (sc), vehicle: olive oil, sesame oil, peanut oil 98 % of control

c1ccc2cc3c(cc2c1)Cn1c-3nc2ccccc21
inactive: [7] 108 % of control | dose: 100.0 mg/kg/injection, schedule: Q01DX009 (ip), vehicle: saline 97 % of control | dose: 100.0 mg/kg/injection, schedule: Q01DX015 (ip), vehicle: saline 95 % of control | dose: 100.0 mg/kg/injection, schedule: Q04DX003 (ip), vehicle: saline 98 % of control | [8] 100 % of control | dose: 200.0 mg/kg/injection, schedule: Q01DX009 (ip), vehicle: saline 95 % of control | dose: 200.0 mg/kg/injection, schedule: Q01DX015 (ip), vehicle: saline 97 % of control | dose: 200.0 mg/kg/injection, schedule: Q04DX003 (ip), vehicle: saline 93 % of control | [9] 100 % of control | dose: 400.0 mg/kg/injection, schedule: Q01DX009 (ip), vehicle: saline 112 % of control | dose: 400.0 mg/kg/injection, schedule: Q04DX003 (ip), vehicle: saline 96 % of control

c1ccc(C2OCCCOC2c2ccccc2)cc1 (stereo not given)
inactive: dose: 100.0 mg/kg/injection, schedule: Q01DX001 (ip), vehicle: carboxymethylcellulose (CMC) 97 % of control | dose: 200.0 mg/kg/injection, schedule: Q01DX001 (ip), vehicle: carboxymethylcellulose (CMC) 97 % of control | dose: 400.0 mg/kg/injection, schedule: Q01DX001 (ip), vehicle: carboxymethylcellulose (CMC) 103 % of control

CC1(C)c2ccccc2N(CCCN2CCCCC2)c2ccccc21
inactive: dose: 9.0 mg/kg/injection, schedule: Q01DX001 (ip), vehicle: water 101 % of control | dose: 18.0 mg/kg/injection, schedule: Q01DX001 (ip), vehicle: water 93 % of control | dose: 36.0 mg/kg/injection, schedule: Q01DX001 (ip), vehicle: water 101 % of control | dose: 50.0 mg/kg/injection, schedule: Q01DX001 (ip), vehicle: water 91 % of control | dose: 100.0 mg/kg/injection, schedule: Q01DX001 (ip), vehicle: water 91 % of control | dose: 200.0 mg/kg/injection, schedule: Q01DX001 (ip), vehicle: water 100 % of control

O=C1C=C(N2C3C4CCC(C4)C32)C(=O)C=C1c1ccccc1 (stereo not given)
inactive: dose: 50.0 mg/kg/injection, schedule: Q01DX001 (ip), vehicle: Klucel (hydroxypropylcellulose) (HPC) 96 % of control | dose: 100.0 mg/kg/injection, schedule: Q01DX001 (ip), vehicle: Klucel (hydroxypropylcellulose) (HPC) 97 % of control | dose: 200.0 mg/kg/injection, schedule: Q01DX001 (ip), vehicle: Klucel (hydroxypropylcellulose) (HPC) 94 % of control

CCCCCCCCCCCn1cnc2c(=S)nc[nH]c21
inactive: dose: 12.5 mg/kg/injection, schedule: Q01DX005 (ip), vehicle: other 103 % of control | dose: 25.0 mg/kg/injection, schedule: Q01DX005 (ip), vehicle: other 97 % of control | dose: 50.0 mg/kg/injection, schedule: Q01DX005 (ip), vehicle: other 98 % of control | dose: 100.0 mg/kg/injection, schedule: Q01DX005 (ip), vehicle: other 98 % of control | dose: 200.0 mg/kg/injection, schedule: Q01DX005 (ip), vehicle: other 97 % of control

COc1cc(C2CC(C)=C(C)CC2C(=O)O)cc(OC)c1OC (stereo not given)
inactive: [2] 92 % of control | [3] 97 % of control | dose: 400.0 mg/kg/injection, schedule: Q04DX003 (ip), vehicle: saline with Tween-80 96 % of control

O=S(=O)(Oc1ccc(Cl)cc1Cl)c1ccc(Cl)cc1
inactive: dose: 75.0 mg/kg/injection, schedule: Q04DX003 (ip), vehicle: Klucel (hydroxypropylcellulose) (HPC) 93 % of control | dose: 150.0 mg/kg/injection, schedule: Q04DX003 (ip), vehicle: Klucel (hydroxypropylcellulose) (HPC) 101 % of control | dose: 300.0 mg/kg/injection, schedule: Q04DX003 (ip), vehicle: Klucel (hydroxypropylcellulose) (HPC) 90 % of control

CCC(CO)N=Cc1ccccc1O.CCC(CO)N=Cc1ccccc1O.[Ni] (stereo not given)
inactive: dose: 9.5 mg/kg/injection, schedule: Q01DX001 (ip), vehicle: other 102 % of control | dose: 19.0 mg/kg/injection, schedule: Q01DX001 (ip), vehicle: other 102 % of control | dose: 38.0 mg/kg/injection, schedule: Q01DX001 (ip), vehicle: other 94 % of control | dose: 75.0 mg/kg/injection, schedule: Q01DX001 (ip), vehicle: other 111 % of control

CCCCC/C(C)=C1\Oc2c(C)c(C)cc(C)c2C1=O
inactive: dose: 100.0 mg/kg/injection, schedule: Q04DX002 (ip), vehicle: saline with Tween-80 100 % of control | dose: 200.0 mg/kg/injection, schedule: Q04DX002 (ip), vehicle: saline with Tween-80 107 % of control | dose: 400.0 mg/kg/injection, schedule: Q04DX002 (ip), vehicle: saline with Tween-80 114 % of control

Cc1ccc2cc(O)ccc2c1
inactive: [7] 91 % of control | dose: 100.0 mg/kg/injection, schedule: Q04DX003 (ip), vehicle: acetone 90 % of control | [8] 96 % of control | dose: 200.0 mg/kg/injection, schedule: Q04DX003 (ip), vehicle: acetone 90 % of control | [9] 92 % of control

CCOc1ccc(CCC(=O)O)cc1
inactive: [4] 100 % of control | [5] 105 % of control | [6] 94 % of control

CC(=O)Nc1cc2c(cc1Cl)-c1ccc(F)cc1C2=O
inactive: [4] 97 % of control | [5] 103 % of control | [6] 105 % of control

CCCCCCCCCCC[n+]1cccc(C#N)c1
inactive: dose: 5.0 mg/kg/injection, schedule: Q01DX009 (ip), vehicle: saline 101 % of control | dose: 10.0 mg/kg/injection, schedule: Q01DX001 (ip), vehicle: saline 94 % of control | dose: 10.0 mg/kg/injection, schedule: Q01DX009 (ip), vehicle: saline 93 % of control | dose: 10.0 mg/kg/injection, schedule: Q04DX003 (ip), vehicle: saline 98 % of control | dose: 20.0 mg/kg/injection, schedule: Q01DX001 (ip), vehicle: saline 101 % of control | dose: 20.0 mg/kg/injection, schedule: Q01DX009 (ip), vehicle: saline 95 % of control | dose: 20.0 mg/kg/injection, schedule: Q04DX003 (ip), vehicle: saline 93 % of control | dose: 40.0 mg/kg/injection, schedule: Q01DX001 (ip), vehicle: saline 108 % of control | dose: 40.0 mg/kg/injection, schedule: Q04DX003 (ip), vehicle: saline 95 % of control

C=C(C)C#CC(O)(C(=O)OCC)C1CCCCC1 (stereo not given)
inactive: dose: 100.0 mg/kg/injection, schedule: Q01DX001 (ip), vehicle: other 98 % of control | dose: 200.0 mg/kg/injection, schedule: Q01DX001 (ip), vehicle: other 109 % of control | dose: 400.0 mg/kg/injection, schedule: Q01DX001 (ip), vehicle: other 102 % of control
